Reference: patent US11447484B2, “Cyclic compound having dopamine D3 receptor antagonistic effect” (Shionogi & Co., Ltd., priority 2018, dated 2022)

Tests used:
[1] = target: human recombinant D3 receptor (Homo sapiens (Human), UniProt P35462); assay: Test of binding inhibition for dopamine D3 receptor; conditions: Jump-In HEK cell membranes, 2 nM [3H]-Methylspiperone, 120 min at 25° C.; read-out: hD3_Ki
Protocol: Test Example 1: Test of Binding Inhibition for Dopamine D3 Receptor
(§1) (Experimental Conditions)
Cell membranes: Jump-In HEK cell membranes expressing human recombinant D3 receptor (4 μg/well)
(§2) Buffer solution: 50 mM Tris-HCl (35409-45, Nacalai Tesque) (pH 7.4) containing 120 mM NaCl (31320-05, Nacalai Tesque), 1 mM MgCl2.6H2O (20909-55, Nacalai Tesque), 5 mM KCl (28514-75, Nacalai Tesque) and 2 mM CaCl2 (067-31, NAKARAI CHEMICALS, LTD.)
Radioligand: (final concentration) 2 nM [^3H]-Methylspiperone ([^3H—N-methyl-]-Methylspiperone, NET-856, 83.8 Ci/mmol, PerkinElmer)
Non-specific ligand: (final concentration) 10 μM Butaclamol [(+)-Butaclamol Hydrochloride, D033, Sigma]
(§3) SPA beads solution: SPA beads [WGA PVT SPA Scintillation Beads, RPNQ0001 (500 mg), RPNQ0060 (2 g), PerkinElmer] (0.2 mg/well)
(§4) Incubation time and temperature: 120 min at 25° C.
(§5) Butaclamol or the compounds of the present invention were weighed and DMSO was added to make a 10 mM solution. This solution was diluted to each concentration.
[^3H]-Methylspiperone was weighed and the buffer solution was added to make a 6 nM solution.
(§6) SPA beads were weighed and stirred in water to make a 50 mg/mL solution. Using this solution, a mixture with the cell membranes was prepared.
(§7) 225 nL of the solutions of the non-specific ligand or the compounds of the present invention at each concentration (in case of vehicle, final concentration 0.3% DMSO) were added in each well of a 384-well white/clear bottom microplate (3706, Corning). Jump-In HEK Cell membranes (final reaction amount: 4 μg protein/well), the SPA beads solution (final reaction amount: 0.2 mg/well) and the buffer solution were mixed and the mixed solution was left still for 1 hour or more at 4° C. Then, 50 μL of the mixture was added to each well of the plate. In addition, 25 μL of 6 nM [^3H]-Methylspiperone (final concentration: 2 nM) was added to each well. The plate was sealed by putting TopSeal-A 96/384 well (6050185, PerkinElmer, Inc.) on the top of the plate, mixed using stirring deaerator (Well Tornado, FK-62, Sakaki-elc.) and incubated for 120 min at 25° C. After incubation, the radioactivity of [^3H]-Methylspiperone which was bonded to D3 receptor was determined by liquid scintillation counter (1450 Microbeta, PerkinElmer) in each well. Non-specific binding was calculated based on the radioactivity of [^3H]-Methylspiperone in the presence of 10 μM non-labeled Butaclamol. The total binding was calculated using the radioactivity of [^3H]-Methylspiperone in the absence of the compounds of the present invention (vehicle). The Ki values were calculated from dose-response curves.
(§8) Binding activities of the compounds of the present invention were calculated from the following Binding Inhibition Rate (%): Inhibition Rate(%)=[1−(c−a)/(b−a)]×100 • a: Average cpm of non-specific binding • b: Average cpm of total binding • c: Cpm in the presence of each test compound

[2] = target: human recombinant D2 receptor (Homo sapiens (Human), UniProt P14416); assay: Test of binding inhibition for dopamine D2 receptor; conditions: Jump-In HEK cell membranes, 1.2 nM [3H]-Methylspiperone, 120 min at 25° C.; read-out: hD2_Ki
Protocol: Test Example 2: Test of Binding Inhibition for Dopamine D2 Receptor
as §1
Cell membranes: Jump-In HEK cell membranes expressing human recombinant D2 receptor (2 μg/well)
as §2
Radioligand: (final concentration) 1.2 nM [^3H]-Methylspiperone ([^3H—N-methyl-]-Methylspiperone, NET-856, 83.8 Ci/mmol, PerkinElmer)
Non-specific ligand: (final concentration) 10 μM Butaclamol [(+)-Butaclamol Hydrochloride, D033; Sigma]
as §3, §4, §5
[^3H]-Methylspiperone was weighed and the buffer solution was added to make a 3.6 nM solution.
as §6
as §7, with “amount: 2” for “amount: 4”, “SPA bead” for “SPA beads”, “of 3.6” for “of 6”, “concentration: 1.2” for “concentration: 2”, “(6050185, PerkinElmer)” for “(6050185, PerkinElmer, Inc.)”, “to D2” for “to D3”
as §8

[3] = target: P-gp (human MDR1-expressing cells) (Homo sapiens (Human), UniProt P08183); assay: P-gp substrate test; assay type: in vitro ADME; conditions: efflux ratio (B→A/A→B) of MDR1-expressing cells compared with parent cells, Transwell monolayer
Protocol: Test Example 14: P-gp Substrate Test
The compound of the present invention was added to one side of Transwell (registered trademark, CORNING) where human MDR1-expressing cells or parent cells have been monolayer-cultured. The cells were reacted for a constant time. The membrane permeability coefficients from the apical side toward the basolateral side (A→B) and from the basolateral side toward the apical side (B→A) were calculated for the MDR1-expressing cells or the parent cells, and the efflux ratio (ER; ratio of the membrane permeability coefficients of B→A and A→B) values of the MDR1-expressing cells and the parent cells were calculated. The efflux ratio (ER) values of the MDR1-expressing cells and the parent cells were compared to confirm whether or not the compound of the present invention would be a P-gp substrate.

human recombinant D2 receptor, sequence (P14416 whole entry): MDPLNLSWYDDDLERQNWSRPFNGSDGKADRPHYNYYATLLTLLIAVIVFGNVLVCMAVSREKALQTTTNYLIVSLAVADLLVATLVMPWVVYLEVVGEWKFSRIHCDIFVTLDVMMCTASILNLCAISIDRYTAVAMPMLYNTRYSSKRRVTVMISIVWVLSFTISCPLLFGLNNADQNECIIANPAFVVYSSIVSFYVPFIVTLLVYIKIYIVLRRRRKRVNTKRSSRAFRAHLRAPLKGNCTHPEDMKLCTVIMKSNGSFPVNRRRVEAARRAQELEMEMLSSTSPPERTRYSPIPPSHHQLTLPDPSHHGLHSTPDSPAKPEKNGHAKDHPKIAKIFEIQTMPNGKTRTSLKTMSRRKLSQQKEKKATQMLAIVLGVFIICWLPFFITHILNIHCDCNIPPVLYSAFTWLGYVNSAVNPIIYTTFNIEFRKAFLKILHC
P-gp (human MDR1-expressing cells), sequence (P08183 whole entry): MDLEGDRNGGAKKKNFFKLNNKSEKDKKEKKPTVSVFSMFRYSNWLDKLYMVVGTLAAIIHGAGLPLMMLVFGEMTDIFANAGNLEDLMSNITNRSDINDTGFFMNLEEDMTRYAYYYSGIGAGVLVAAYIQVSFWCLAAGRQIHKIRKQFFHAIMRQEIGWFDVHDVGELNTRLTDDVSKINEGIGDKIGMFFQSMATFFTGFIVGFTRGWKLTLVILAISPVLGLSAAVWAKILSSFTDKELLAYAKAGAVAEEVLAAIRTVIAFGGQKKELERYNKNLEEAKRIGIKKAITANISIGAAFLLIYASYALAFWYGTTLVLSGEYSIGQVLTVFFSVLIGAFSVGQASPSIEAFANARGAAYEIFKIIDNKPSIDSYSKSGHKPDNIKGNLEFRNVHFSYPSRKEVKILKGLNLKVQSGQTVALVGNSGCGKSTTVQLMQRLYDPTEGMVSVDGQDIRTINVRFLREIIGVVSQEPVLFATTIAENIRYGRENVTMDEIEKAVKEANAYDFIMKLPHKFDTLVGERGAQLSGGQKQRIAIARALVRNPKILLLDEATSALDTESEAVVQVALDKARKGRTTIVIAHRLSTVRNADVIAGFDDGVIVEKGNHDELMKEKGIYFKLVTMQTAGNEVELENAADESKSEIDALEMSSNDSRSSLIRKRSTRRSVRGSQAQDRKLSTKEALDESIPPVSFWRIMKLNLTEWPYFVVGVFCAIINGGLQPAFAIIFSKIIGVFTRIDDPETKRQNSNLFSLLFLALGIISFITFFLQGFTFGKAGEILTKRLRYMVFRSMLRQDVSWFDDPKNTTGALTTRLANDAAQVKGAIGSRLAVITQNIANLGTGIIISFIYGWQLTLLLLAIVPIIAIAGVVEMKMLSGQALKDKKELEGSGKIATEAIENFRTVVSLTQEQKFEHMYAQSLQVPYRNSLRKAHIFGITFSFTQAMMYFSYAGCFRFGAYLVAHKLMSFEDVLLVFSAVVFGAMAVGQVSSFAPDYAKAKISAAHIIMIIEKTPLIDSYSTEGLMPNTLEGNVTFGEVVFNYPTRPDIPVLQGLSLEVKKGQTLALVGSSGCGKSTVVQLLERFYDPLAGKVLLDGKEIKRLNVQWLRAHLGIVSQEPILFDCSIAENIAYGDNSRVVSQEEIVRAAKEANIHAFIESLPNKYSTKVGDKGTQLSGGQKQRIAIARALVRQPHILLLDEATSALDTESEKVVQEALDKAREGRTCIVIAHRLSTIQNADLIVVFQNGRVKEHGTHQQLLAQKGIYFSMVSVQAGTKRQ
human recombinant D3 receptor, sequence (P35462 whole entry): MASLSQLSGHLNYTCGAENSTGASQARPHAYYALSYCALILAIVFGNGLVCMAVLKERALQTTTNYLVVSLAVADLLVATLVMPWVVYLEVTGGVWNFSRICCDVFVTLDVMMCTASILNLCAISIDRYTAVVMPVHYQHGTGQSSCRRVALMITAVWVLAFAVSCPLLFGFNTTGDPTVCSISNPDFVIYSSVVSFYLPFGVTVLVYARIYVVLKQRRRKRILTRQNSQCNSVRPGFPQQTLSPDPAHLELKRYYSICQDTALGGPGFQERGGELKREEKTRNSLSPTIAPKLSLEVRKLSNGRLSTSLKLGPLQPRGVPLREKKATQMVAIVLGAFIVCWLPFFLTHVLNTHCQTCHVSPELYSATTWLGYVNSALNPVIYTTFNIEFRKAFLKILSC

SMILES | Ki [1] | Ki [2] | P-gp ER ratio [3]
CCc1cc(C23CC2CN(CC[C@H]2CC[C@H](NC(=O)c4cccc5nn(C)cc45)CC2)C3)no1 (some centres unmarked) [Compound I-034] | 0.71 nM | 730 nM | 1.3
Cc1cnc(CC(=O)N[C@H]2CC[C@H](CCN3C[C@@H]4C[C@]4(c4cc(C(C)(F)F)on4)C3)CC2)o1 [Compound I-040] | 0.56 nM | 350 nM | 
Cn1cc(CC(=O)N[C@H]2CC[C@H](CCN3C[C@@H]4C[C@]4(c4cc(C(C)(F)F)on4)C3)CC2)cn1 [Compound I-043] | 0.45 nM | 270 nM | 
Cn1cc(OCC(=O)N[C@H]2CC[C@H](CCN3C[C@@H]4C[C@]4(c4cc(C(C)(F)F)on4)C3)CC2)cn1 [Compound I-044] | 0.83 nM | 220 nM | 
CCc1cc([C@]23C[C@H]2CN(CC[C@H]2CC[C@H](NC(=O)c4cccnc4C)CC2)C3)no1 [Compound I-047] | 1.4 nM | 530 nM | 
CCc1cc([C@]23C[C@H]2CN(CC[C@H]2CC[C@H](NC(=O)COc4cnn(C)c4)CC2)C3)no1 [Compound I-048] | 0.71 nM | 550 nM | 
CCc1cc([C@]23C[C@H]2CN(CC[C@H]2CC[C@H](NC(=O)Cc4cnc(C)o4)CC2)C3)no1 [Compound I-052] | 0.58 nM | 920 nM | 2.4
CCc1cc([C@]23C[C@H]2CN(CC[C@H]2CC[C@H](NC(=O)Cc4cnn(C)n4)CC2)C3)no1 [Compound I-053] | 0.48 nM | 1100 nM | 1.9
CCc1cc([C@]23C[C@H]2CN(CC[C@H]2CC[C@H](NC(=O)Cc4ncc(C)o4)CC2)C3)no1 [Compound I-054] | 1.2 nM | 780 nM | 
CCc1cc([C@]23C[C@H]2CN(CC[C@H]2CC[C@H](NC(=O)Cc4cnn(C)c4)CC2)C3)no1 [Compound I-056] | 0.62 nM | 1000 nM | 
CCc1cc([C@]23C[C@H]2CN(CC[C@H]2CC[C@H](NC(=O)c4cccn5nccc45)CC2)C3)no1 [Compound I-057] | 0.47 nM | 230 nM | 
CCc1cc([C@]23C[C@H]2CN(CC[C@H]2CC[C@H](NC(=O)Cc4noc(C)n4)CC2)C3)no1 [Compound I-058] | 1.3 nM | 790 nM | 
CCc1cc([C@]23C[C@H]2CN(CC[C@H]2CC[C@H](NC(=O)Cc4nnc(C)s4)CC2)C3)no1 [Compound I-059] | 0.77 nM | 550 nM | 
Cc1ncc(OCC(=O)N[C@H]2CC[C@H](CCN3C[C@@H]4C[C@]4(c4cc(C5CC5)on4)C3)CC2)cn1 [II-4] | 0.45 nM | 730 nM | 
Cn1ncc(CC(=O)N[C@H]2CC[C@H](CCN3C[C@@H]4C[C@]4(c4cc(C5CC5)on4)C3)CC2)n1 [II-5] | 0.71 nM | 860 nM | 

Further lines, results first:

Ki [1] | Ki [2] | P-gp ER ratio [3] | SMILES
0.28 nM | 240 nM |  | Cc1ncc(CC(=O)N[C@H]2CC[C@H](CCN3C[C@@H]4C[C@]4(c4cc(C(C)(F)F)on4)C3)CC2)o1 [Compound I-041]
0.061 nM | 1300 nM |  | Cc1cc(CC(=O)N[C@H]2CC[C@H](CCN3C[C@@H]4C[C@]4(c4cc(C(C)(F)F)on4)C3)CC2)on1 [Compound I-042]
0.13 nM | 86 nM |  | CN1Cc2c(C(=O)N[C@H]3CC[C@H](CCN4C[C@@H]5C[C@]5(c5cc(C(C)(F)F)on5)C4)CC3)cccc2C1=O [Compound I-045]
0.2 nM | 330 nM | 1.9 | Cc1ncc(OCC(=O)N[C@H]2CC[C@H](CCN3C[C@@H]4C[C@]4(c4cc(C(C)(F)F)on4)C3)CC2)cn1 [Compound I-046]
0.44 nM | 830 nM |  | CCc1cc([C@]23C[C@H]2CN(CC[C@H]2CC[C@H](NC(=O)COc4cnc(C)nc4)CC2)C3)no1 [Compound I-049]
0.42 nM | 200 nM |  | CCc1cc([C@]23C[C@H]2CN(CC[C@H]2CC[C@H](NC(=O)c4ccc(F)c5nn(C)cc45)CC2)C3)no1 [Compound I-050]
0.3 nM | 380 nM |  | CCc1cc([C@]23C[C@H]2CN(CC[C@H]2CC[C@H](NC(=O)/C=C/c4cnc(C)nc4)CC2)C3)no1 [Compound I-051]
0.23 nM | 850 nM |  | CCc1cc([C@]23C[C@H]2CN(CC[C@H]2CC[C@H](NC(=O)Cc4cc(C)no4)CC2)C3)no1 [Compound I-055]
0.42 nM | > 2300 nM |  | Cn1cc2c(C(=O)N[C@H]3CC[C@](F)(CCN4C[C@@H]5C[C@]5(c5cc(C(C)(F)F)on5)C4)CC3)cccc2n1 [II-1]
0.2 nM | 380 nM |  | Cn1cc2c(C(=O)N[C@H]3CC[C@H](CCN4CC5CC5(c5cc(C6CC6)on5)C4)CC3)cccc2n1 (some centres unmarked) [II-2]
0.36 nM | 730 nM |  | Cn1cc(CC(=O)N[C@H]2CC[C@H](CCN3C[C@@H]4C[C@]4(c4cc(C5CC5)on4)C3)CC2)cn1 [II-3]
